Counter-ions that a name gives are not always drawn. Like-named read-outs stand apart in the source and are kept apart here.
Columns and labels:
[1] = system: acetylcholine induced abdominal constriction; assay: prevention of acetylcholine induced abdominal constriction in mice; assay type: in vivo; conditions: for ED50: Mus musculus, 0.5 h, analgesic alone, oral, mice, acetylcholine challenge 30 minutes after treatment
Description: Mature, male Swiss-Webster mice (weighing 25-30 g) were utilized in determining the analgesic effects of the compositions. The mice were all dosed orally with glucosamine sulfate, which was completely dissolved in distilled water, and a selected analgesic (ibuprofen, diclofenac, tramadol HCl, or acetaminophen), which was completely dissolved in distilled water or in distilled water containing 2% by volume of TWEEN®-80 containing 100% polysorbate 80. Mice were dosed at 10 mL/kg.
The procedure used in detecting and comparing the analgesic activity of different classes of analgesic drugs was the prevention of acetylcholine induced abdominal constriction in mice.
Mice were treated with various doses of glucosamine sulfate alone, analgesic alone, combined doses of glucosamine sulfate and analgesic, or vehicle such as distilled water containing 2% by volume of TWEEN®-80. Intraperitoneal injection of a challenge dose of acetylcholine bromide was administered 30 minutes after treatment. […] For scoring purposes an “abdominal constriction” was defined as a contraction of the abdominal musculature accompanied by arching of the back and extension of the limbs. […] Each mouse was tested only once.
Doses of the combinations were coded to permit complete randomization of the tests.

[2] = system: acetylcholine induced abdominal constriction; assay: as above; assay type: in vivo

CC(=O)Nc1ccc(O)cc1 [Acetaminophen]
No. protected/no. tested ([1]; acetaminophen 62.5 mg/kg alone): 1/10 | No. protected/no. tested ([1]; acetaminophen 125 mg/kg alone): 4/10 | No. protected/no. tested ([1]; acetaminophen 250 mg/kg alone): 8/10

CC(=O)Oc1ccccc1C(=O)O [Aspirin]
No. protected/no. tested ([2]; ASA 50 mg/kg alone): 1/10 | No. protected/no. tested ([2]; ASA 100 mg/kg alone): 4/10 | No. protected/no. tested ([2]; ASA 150 mg/kg alone): 8/10 | No. protected/no. tested ([2]; ASA 200 mg/kg alone): 7/10 | ED50 [1]: 109 mg/kg

O=C(O)Cc1ccccc1Nc1c(Cl)cccc1Cl [Diclofenac]
ED50 [1]: 1.14 mg/kg

CC(C)Cc1ccc(C(C)C(=O)O)cc1 (centres unmarked) [Ibuprofen, 2-(p-isobutylphenyl)propionic acid]
No. protected/no. tested ([2]; ibuprofen 27.8 mg/kg alone): 6/10 | No. protected/no. tested ([2]; ibuprofen 30.0 mg/kg alone): 6/10 | ED50 [1]: 26.1 ± 3.41 mg/kg | No. protected/no. tested ([1]; ibuprofen 10 mg/kg alone): 1/10 | No. protected/no. tested ([1]; ibuprofen 13.91 mg/kg alone): 1/10 | No. protected/no. tested ([1]; ibuprofen 20.0 mg/kg alone): 4/10 | No. protected/no. tested ([1]; ibuprofen 41.74 mg/kg alone): 8/10 | No. protected/no. tested ([1]; ibuprofen 100 mg/kg alone): 9/10

COc1ccc2c(c1)c(CC(=O)O)c(C)n2C(=O)c1ccc(Cl)cc1 [Indomethacin]
No. protected/no. tested ([2]; indomethacin 2.5 mg/kg alone): 4/10 | No. protected/no. tested ([2]; indomethacin 5.0 mg/kg alone): 6/10 | No. protected/no. tested ([2]; indomethacin 10.0 mg/kg alone): 7/10 | ED50 [1]: 3.66 mg/kg

CC(C)Cc1ccc([C@H](C)C(=O)O)cc1 [S(+) Ibuprofen]
No. protected/no. tested ([2]; Group A: S(+) ibuprofen 15 mg/kg alone): 2/10 | No. protected/no. tested ([2]; Group B: S(+) ibuprofen 30 mg/kg alone): 4/10 | No. protected/no. tested ([2]; Group C: S(+) ibuprofen 60 mg/kg alone): 6/10 | No. protected/no. tested ([2]; Group D: S(+) ibuprofen 120 mg/kg alone): 7/10

COc1cccc(C2(O)CCCCC2CN(C)C)c1 (centres unmarked) [Tramadol HCl]
ED50 ([2]; Mus musculus, 0.5 h, read-out: ED50 (alone)): 8.05 mg/kg

— US6900189B2, “Analgesic and glucosamine compositions” (priority 2000, dated 2005)
